Measurements: the NIST ThermoML archive (doi:10.1016/j.jct.2013.09.001)

Columns and labels:
[1] = 101 kPa, Liquid; for viscosity: Concentric cylinders viscometry; for mass density: Vibrating tube method
[2] = xn = mol fraction of the nth substance listed; details: 101 kPa, Liquid; for viscosity: Concentric cylinders viscometry; for mass density: Vibrating tube method

CC(=O)[O-].CCCCn1cc[n+](C)c1 [1-butyl-3-methylimidazolium acetate]
[1]
Details	mass density [kg/m3]	viscosity [mPa·s]
293.15 K	1056.1	549.9
303.15 K	1049.6	257.4
313.15 K	1043.5	135.5
323.15 K	1037.4	78.4
333.15 K	1031.3	49
343.15 K	1025.4	32.5
353.15 K	–	22.7

CC(=O)[O-].CCCCn1cc[n+](C)c1 [1-butyl-3-methylimidazolium acetate] + CN(CCO)CCO
[2]
Details	mass density, x2 = 0 [kg/m3]	mass density, x2 = 0.2 [kg/m3]	mass density, x2 = 0.4 [kg/m3]	mass density, x2 = 0.6 [kg/m3]	mass density, x2 = 0.8 [kg/m3]	viscosity, x2 = 0 [mPa·s]	viscosity, x2 = 0.2 [mPa·s]	viscosity, x2 = 0.4 [mPa·s]	viscosity, x2 = 0.6 [mPa·s]	viscosity, x2 = 0.8 [mPa·s]
293.15 K	1056.1	1052.6	1049.5	1046	1043.4	549.9	369.6	254.3	164.4	117.9
303.15 K	1049.6	1046.1	1043	1039.2	1036.4	257.4	188.9	139.8	94.9	68.9
313.15 K	1043.5	1040.1	1037	1033.1	1029.8	135.5	106.6	83.2	58.8	43.1
323.15 K	1037.4	1034.1	1030.9	1026.8	1023.1	78.4	65	52.9	38.7	28.4
333.15 K	1031.3	1028.1	1024.7	1020.5	1016.4	49	42.3	35.6	26.7	19.7
343.15 K	1025.4	1022.3	1018.8	1014.4	1009.8	32.5	29	25.1	19.3	14.2
353.15 K	–	–	–	–	–	22.7	20.7	18.3	14.4	10.6

CC(=O)[O-].CCCCn1cc[n+](C)c1 [1-butyl-3-methylimidazolium acetate] + OCCNCCO
[2]
Details	mass density, x2 = 0 [kg/m3]	mass density, x2 = 0.2 [kg/m3]	mass density, x2 = 0.4 [kg/m3]	mass density, x2 = 0.6 [kg/m3]	mass density, x2 = 0.8 [kg/m3]	viscosity, x2 = 0 [mPa·s]	viscosity, x2 = 0.2 [mPa·s]	viscosity, x2 = 0.4 [mPa·s]	viscosity, x2 = 0.6 [mPa·s]	viscosity, x2 = 0.8 [mPa·s]
293.15 K	1056.1	1058.7	1062.8	1068.8	1079.7	549.9	425	319.4	286.8	400.1
303.15 K	1049.6	1052.2	1056.3	1062.3	1073.1	257.4	208.3	176.1	150.8	197
313.15 K	1043.5	1046.2	1050.3	1056.2	1067	135.5	114	95.9	86.8	106.3
323.15 K	1037.4	1040.1	1044.2	1050.2	1060.7	78.4	68.4	59.2	53.8	62.2
333.15 K	1031.3	1034.1	1038.1	1044.1	1054.4	49	43.9	38.9	35.4	38.9
343.15 K	1025.4	1028.2	1032.2	1038.1	1048.3	32.5	29.8	26.9	24.6	25.8
353.15 K	–	–	–	–	–	22.7	21.3	19.4	17.8	17.9

CN(CCO)CCO [N-methyldiethanolamine]
[1]
Details	mass density [kg/m3]	viscosity [mPa·s]
293.15 K	1040.6	103.3
303.15 K	1032.8	57.3
313.15 K	1025.4	34.1
323.15 K	1017.8	21.6
333.15 K	1010	14.3
343.15 K	1002.3	9.9
353.15 K	–	7.2

CN(CCO)CCO [N-methyldiethanolamine] + CC(=O)[O-].CCCCn1cc[n+](C)c1
[2], x1 = 1
Details	mass density [kg/m3]	viscosity [mPa·s]
293.15 K	1040.6	103.3
303.15 K	1032.8	57.3
313.15 K	1025.4	34.1
323.15 K	1017.8	21.6
333.15 K	1010	14.3
343.15 K	1002.3	9.9
353.15 K	–	7.2

OCCNCCO [diethanolamine]
[1]
Details	mass density [kg/m3]	viscosity [mPa·s]
293.15 K	1097.4	–
303.15 K	1090.5	386.6
313.15 K	1083.9	189.7
323.15 K	1077.1	101.2
333.15 K	1070.3	57.9
343.15 K	1063.5	35.3
353.15 K	–	22.7

OCCNCCO [diethanolamine] + CC(=O)[O-].CCCCn1cc[n+](C)c1
[2], x1 = 1
Details	mass density [kg/m3]	viscosity [mPa·s]
293.15 K	1097.4	–
303.15 K	1090.5	386.6
313.15 K	1083.9	189.7
323.15 K	1077.1	101.2
333.15 K	1070.3	57.9
343.15 K	1063.5	35.3
353.15 K	–	22.7
